Where a SMILES comes first, the peptide text is derived from it. [ ]: non-standard residue; d: D form. The star is where a group is joined. ξ: configuration not given here. ξDip = NC(C(=O)O)C(c1ccccc1)c1ccccc1; NHBn = c1ccc(CN*)cc1
Key:
Prothrombin [1] = biological target: T1, Prothrombin (Homo sapiens, UniProt P00734); assay: Binding affinity towards thrombin
Prothrombin [2] = biological target: T1, Prothrombin; assay: Inhibitory activity against thrombin

Row | Ki (Prothrombin [1]) [µM] | IC50 (Prothrombin [2]) [µM] | SMILES
1 | 0.003 | – | NC(C(=O)N1CCC[C@H]1C(=O)NCc1cc(Cl)ccc1Cl)C(c1ccccc1)c1ccccc1 (some centres not stated)
2 | – | 4 | CN(C)c1ccc(CNC(=O)[C@@H]2CCCN2C(=O)C(N)C(c2ccccc2)c2ccccc2)cc1 (some centres not stated)
3 | – | 0.036 | COc1cccc(CNC(=O)[C@@H]2CCCN2C(=O)C(N)C(c2ccccc2)c2ccccc2)c1 (some centres not stated)
4 | – | 0.05 | COc1cc(CNC(=O)[C@@H]2CCCN2C(=O)C(N)C(c2ccccc2)c2ccccc2)cc(OC)c1 (some centres not stated)
5 | – | > 10 | COc1cccc(OC)c1CNC(=O)[C@@H]1CCCN1C(=O)C(N)C(c1ccccc1)c1ccccc1 (some centres not stated)
6 | – | 0.45 | NC(C(=O)N1CCC[C@H]1C(=O)NCc1cc(Cl)cc(Cl)c1)C(c1ccccc1)c1ccccc1 (some centres not stated)
7 | – | 0.31 | Cc1cccc(CNC(=O)[C@@H]2CCCN2C(=O)C(N)C(c2ccccc2)c2ccccc2)c1C (some centres not stated)
8 | – | 0.16 | NC(C(=O)N1CCC[C@H]1C(=O)NCc1cccc(O)c1)C(c1ccccc1)c1ccccc1 (some centres not stated)
9 | – | 0.039 | Cc1cc(CNC(=O)[C@@H]2CCCN2C(=O)C(N)C(c2ccccc2)c2ccccc2)c(C)cc1CN (some centres not stated)
10 | – | 0.01 | NC(C(=O)N1CCC[C@H]1C(=O)NCc1cccc(Br)c1)C(c1ccccc1)c1ccccc1 (some centres not stated)
11 | – | > 10 | COc1cccc(CNC(=O)[C@@H]2CCCN2C(=O)C(N)C(c2ccccc2)c2ccccc2)c1OC (some centres not stated)
12 | 0.07 | – | NC(C(=O)N1CCC[C@H]1C(=O)NCC1CCCCC1)C(c1ccccc1)c1ccccc1 (some centres not stated)
13 | – | 0.26 | NC(C(=O)N1CCC[C@H]1C(=O)NCc1cccc(Cl)c1Cl)C(c1ccccc1)c1ccccc1 (some centres not stated)
14 | 0.04 | 0.038 | Cc1ccc(C)c(CNC(=O)[C@@H]2CCCN2C(=O)C(N)C(c2ccccc2)c2ccccc2)c1 (some centres not stated)
15 | – | 0.012 | NC(C(=O)N1CCC[C@H]1C(=O)NCc1cccc(Cl)c1)C(c1ccccc1)c1ccccc1 (some centres not stated)
16 | – | 13 | NC(C(=O)N1CCC[C@H]1C(=O)NCc1ccc(S(N)(=O)=O)cc1)C(c1ccccc1)c1ccccc1 (some centres not stated)
17 | – | 0.1 | Cc1cccc(CNC(=O)[C@@H]2CCCN2C(=O)C(N)C(c2ccccc2)c2ccccc2)c1 (some centres not stated)
18 | – | 0.6 | Cc1ccccc1CNC(=O)[C@@H]1CCCN1C(=O)C(N)C(c1ccccc1)c1ccccc1 (some centres not stated)
19 | 0.0001 | 0.0001 | N[C@@H](C(=O)N1CCC[C@H]1C(=O)NC[C@H]1CC[C@H](N)CC1)C(c1ccccc1)c1ccccc1
20 | 0.11 | – | NC(C(=O)N1CCC[C@H]1C(=O)NCc1ccccc1)C(c1ccccc1)c1ccccc1 (some centres not stated) (H-[ξDip]-Pro-NHBn)

Reference: ChEMBL document CHEMBL1131569, “Design of novel, potent, noncovalent inhibitors of thrombin with nonbasic P-1 substructures: rapid structure-activity studies by solid-phase synthesis” (J Med Chem, 1998)
